From EPA's ToxValDB 9.5
Converted amounts (≈) assume the structure as drawn. “And” between values parts separate entries of the source, which are not always exact repeats. Identical values can stand only once. Counter-ions that a name gives are not always drawn.

How the values were obtained:
[1] = system: Cavia porcellus; details: acute; Inhalation
[2] = system: Oryctolagus sp.; details: acute, dermal
[3] = system: Rattus norvegicus; details: for LC50 / LD50: acute; for LC50: inhalation
[4] = system: Canidae; details: oral, M/F, Dog Other
[5] = system: Canidae; details: chronic, oral, Dog Other
[6] = system: Rattus norvegicus; details: chronic; duration: 2 years; inhalation; M/F; Degeneration and inflammation of nasal respiratory epithelium + hyperplasia of mucous secreting cells
[7] = system: Rattus norvegicus; details: oral, drinking water, M/F
[8] = system: Mus musculus; details: subchronic; duration: 60 days; oral; gavage; Testes: Decreased sperm counts + Testes: Seminiferous tubule degeneration
[9] = system: Mus musculus; details: subchronic; oral; M/F; no effects
[10] = system: Mus musculus; details: subchronic; duration: 90 days; oral; gavage; M/F; CD-10 (ICR) BR; Whole Body Effects
[11] = system: Mus musculus; details: subchronic; duration: 13 weeks; oral; gavage; M/F; CD1; hepatic
[12] = system: Homo sapiens; details: clinical; duration: 10 weeks; oral; drinking water; Cardiovascular system: Increased blood pressure
[13] = system: Rattus norvegicus; details: developmental; duration: 4 months; inhalation; intermittent; Fetus: Fetotoxicity
[14] = system: Mus musculus; details: uterotrophic, duration: 3 days, Active
[15] = system: Rattus norvegicus; details: for LEL: uterotrophic, Active
[16] = system: Homo sapiens; details: clinical; Induction of resistant enterobacteriaceae
[17] = system: Gallus sp.; details: subchronic; duration: 90 days; oral; F; neurotoxicity
[18] = system: Homo sapiens; details: clinical; oral; M; plasma cholinesterase inhibition
[19] = system: Canidae; details: subchronic, duration: 90 days, oral, M/F, Beagle, neurological
[20] = system: Rattus norvegicus; details: developmental; oral; gavage; Embryotoxic effects
[21] = system: Rattus norvegicus; assay: LC100; higher = less toxic; details: acute; inhalation
[22] = system: Homo sapiens; details: clinical; duration: 1 days; inhalation; nose only; unknown; respiratory
[23] = system: Coturnix japonica; details: repeat dose other; oral
[24] = system: Rattus norvegicus; details: repeat dose other; oral
[25] = reproduction developmental, duration: 19 days, oral, gavage, Sprague-Dawley
[26] = chronic, histopathological liver
[27] = chronic, duration: 12 months, diet, increased relative liver weight in male dogs
[28] = chronic, duration: 2 years, diet, increased absolute and relative weight of stomach and small intestine
[29] = Hershberger, duration: 10 days, oral, gavage, Sprague-Dawley, active + Androgenic + Negative + androgenic
[30] = subchronic, duration: 90 days, diet, inhibition of brain cholinesterase

CC(C)(N=C=O)c1cccc(C(C)(C)N=C=O)c1 [1,3-Bis(2-isocyanato-2-propyl)benzene]
LC50 [1]: 0.24 µg/mL (≈ 0.982 µM) | LD50 ([2]; occlusive, New Zealand): > 2000 mg/kg | LC50 ([3]; Sprague-Dawley): 0.027 µg/mL (≈ 0.111 µM) | LD50 ([3]; oral, gavage, Sprague-Dawley): > 5000 mg/kg | LOAEL [3, 25]: 250 mg/kg-day | NOAEL [3, 25]: 150 mg/kg-day | NOAEL ([3]; reproduction developmental, duration: 19 days, oral, gavage, Sprague-Dawley, generation: F0): 150 mg/kg-day | NOAEL ([3]; reproduction developmental, duration: 19 days, oral, gavage, Sprague-Dawley, generation: F1): 250 mg/kg-day | NOAEL ([3]; reproduction developmental, oral, gavage, F, Sprague-Dawley): 150 mg/kg-day | NOAEL ([3]; reproduction developmental, oral, gavage, Sprague-Dawley, generation: F1): 250 mg/kg-day | NOAEL ([3]; short-term, duration: 4 weeks, Inhalation, Sprague-Dawley): 1.5 mg/m3

CC(Oc1cc(Cl)c(Cl)cc1Cl)C(=O)O (stereo not drawn) [2-(2,4,5-Trichlorophenoxy)propionic acid]
LOAEL [4, 26]: 2.5 mg/kg-day | NOEL [4, 26]: 0.75 mg/kg-day | NOEL ([5]; duration: 2 years, diet, Liver: Histopathology): 0.75 mg/kg-day

C=CC#N [Acrylonitrile]
LOAEL [6]: 43 mg/m3 | LOAEL ([7]; chronic, duration: 22 months, Spartan Sprague-Dawley, hematological): 0.09 mg/kg-day | NOAEL [8]: 1 mg/kg-day

c1ccc2cc3ccccc3cc2c1 [Anthracene]
NOEL [9]: 1000 mg/kg-day | NOEL [10]: 1000 mg/kg-day | NOAEL [11]: 1000 mg/kg-day

[Ba] [Barium]
NOAEL ([7]; subchronic, duration: 90 days, Fischer 344, renal): 65 mg/kg-day | NOAEL [12]: 0.21 mg/kg-day | NOEL [13]: 0.8 mg/m3

O=C(O)c1ccccc1 [Benzoic acid]
LEL ([14]; injection, subcutaneous): 1 µg/100 g | LEL (ug/100 g BW) ([14]; injection, subcutaneous): 10

O=C(OCc1ccccc1)c1ccccc1O [Benzyl salicylate]
LEL ([14]; oral): 11.1 mg/kg-day | LEL ([15]; duration: 3 days, oral): 3.7 mg/kg-day

CCSC(=O)N(CC(C)C)CC(C)C [Butylate]
LOAEL [4, 27]: 25 mg/kg-day | NOAEL [4, 27]: 5 mg/kg-day | NOEL ([5]; duration: 12 months, capsule, Liver: Increased relative weight): 5 mg/kg-day

CN(C)[C@@H]1C(=O)C(C(N)=O)=C(O)[C@@]2(O)C(=O)C3=C(O)c4c(O)ccc(Cl)c4[C@@](C)(O)[C@H]3C[C@@H]12 [Chlortetracycline]
LOEL [16]: 20 mg/day | NOEL [16]: 2 mg/day

CCOP(=S)(Oc1ccc([N+](=O)[O-])cc1)c1ccccc1 (stereo not drawn) [EPN]
LEL [17]: 0.1 mg/kg-day | NOEL [17]: 0.01 mg/kg-day

O=C(O)[C@@H]1[C@H](C(=O)O)[C@H]2CC[C@@H]1O2 [Endothal]
LEL [4, 28]: 6 mg/kg-day | NOEL [4, 28]: 2 mg/kg-day | NOEL ([5]; duration: 2 years, diet, Small intestine: Increased weight + Stomach: Increased weight): 2 mg/kg-day

C[C@]12CC[C@H]3C(=CCc4cc(O)ccc43)[C@@H]1CCC2=O [Equilin]
LEL (gamma) ([14]; injection, subcutaneous): 1 and 3 | LOEL [15, 29]: 2 mg/kg-day | NOEL [15, 29]: 0.5 mg/kg-day | LEL ([15]; duration: 3 days, injection, subcutaneous): 2 mg/kg-day | LEL ([15]; duration: 7 days, injection, subcutaneous): 0.00025 mg/day

CCOP(=S)(OCC)SCSP(=S)(OCC)OCC [Ethion]
LEL [4, 30]: 0.71 mg/kg-day | NOEL [4, 30]: 0.06 mg/kg-day | LEL [18]: 0.075 mg/kg-day | NOEL [18]: 0.05 mg/kg-day | NOAEL [19]: 0.06 mg/kg-day | NOAEL ([19]; diet): 0.06 mg/kg-day | NOAEL [20]: 0.2 mg/kg-day

CCOS(=O)(=O)OCC [Ethyl sulfate (Et2SO4)]
LD50 [2]: 706 mg/kg | LC50 [3]: ≥ 1580 mg/m3 and ≤ 3150 mg/m3 | LD50 ([3]; injection, subcutaneous): 350 mg/kg | LD50 ([3]; oral): 880 mg/kg | LC100 [21]: 3150 mg/m3

FF [Fluorine]
NOAEL [22]: 15.5 mg/m3

[Mn+2].[Mn+3].[Mn+3].[O-2].[O-2].[O-2].[O-2] [Manganese oxide (Mn3O4)]
NOAEL [23]: 997 mg/kg-day | LOAEL [24]: 284 mg/kg-day | NOAEL [24]: 88 mg/kg-day
